Bounds are passed on as bounds.

`CC(=O)c1ccc(C)c(Nc2ncc(-c3ccc(C#N)cc3)o2)c1` [Compound 018, 4-[2-(5-Acetyl-2-methyl-phenylamino)-oxazol-5-yl]-benzonitrile] displayed a melting point of 240 °C. Compound `Cc1ccc(Nc2nc3cc(Cl)ccc3o2)cc1Nc1ncc(-c2ccncc2)o1` [Compound 005, N1-(5-Chloro-benzooxazol-2-yl)-4-methyl-N3-(5-pyridin-4-yl-oxazol-2-yl)-benzene-1,3-diamine] had a melting point of 229 °C. As for `Cc1ccc(Nc2nc3cc(F)ccc3o2)cc1Nc1ncc(-c2ccncc2)o1` [Compound 009, N1-(5-Fluoro-benzooxazol-2-yl)-4-methyl-N3-(5-pyridin-4-yl-oxazol-2-yl)-benzene-1,3-diamine], the figure is 170 °C; as for `Cc1ccc(Nc2nc3ccccc3s2)cc1Nc1ncc(-c2ccc(C#N)cc2)o1` [Compound 003, 4-{2-[5-(Benzothiazol-2-ylamino)-2-methyl-phenylamino]-oxazol-5-yl}-benzonitrile], 216 to 220 °C. `Cc1ccc(N2CCN(c3cccc(C#N)c3)C2=O)cc1Nc1ncc(-c2ccc(C#N)cc2)o1` [Compound 012, 4-(2-{5-[3-(3-cyano-phenyl)-2-oxo-imidazolidin-1-yl]-2-methyl-phenylamino}-oxazol-5-yl)-benzonitrile] returned a melting point above 260 °C. On to `Cc1ccc(N(C)CC(=O)c2ccc(F)cc2)cc1Nc1ncc(-c2ccncc2)o1` [Compound 024, 1-(4-Fluoro-phenyl)-2-{methyl-[4-methyl-3-(5-pyridin-4-yl-oxazol-2-ylamino)-phenyl]-amino}-ethanone], for which the melting point amounted to 230 °C. In turn, `Cc1ccc(NCC(=O)c2ccccc2)cc1Nc1ncc(-c2ccncc2)o1` [Compound 026, 2-[4-Methyl-3-(5-pyridin-4-yl-oxazol-2-ylamino)-phenylamino]-1-phenyl-ethanone] displayed a melting point of 152 °C.

`Cc1ccc(C(=O)CCc2ccc(F)cc2)cc1Nc1ncc(-c2ccc(C#N)cc2)o1` [Compound 019, 4-(2-{5-[3-(4-Fluoro-phenyl)-propionyl]-2-methyl-phenylamino}-oxazol-5-yl)-benzonitrile] came in with a melting point of 175 °C. For `Cc1ccc(Nc2nc3ccccc3o2)cc1Nc1ncc(-c2cccnc2)o1` [Compound 004, N1-Benzooxazol-2-yl-4-methyl-N3-(5-pyridin-3-yl-oxazol-2-yl)-benzene-1,3-diamine], the melting point came to 238 °C. Consider `CC(=O)c1ccc(C)c(Nc2ncc(-c3ccc(C(N)=O)cc3)o2)c1` [Compound 022, 4-[2-(5-Acetyl-2-methyl-phenylamino)-oxazol-5-yl]-benzamide], for which the melting point is above 260 °C. Compound `Cc1ccc(N(C)CC(=O)c2ccc(C#N)cc2)cc1Nc1ncc(-c2ccncc2)o1` [Compound 025, 4-({Methyl-[4-methyl-3-(5-pyridin-4-yl-oxazol-2-ylamino)-phenyl]-amino}-acetyl)-benzonitrile] came in with a melting point of 218 °C. Regarding `Cc1ccc(NCC(=O)c2ccc(F)cc2)cc1Nc1ncc(-c2ccc(C#N)cc2)o1` [Compound 027, 4-(2-{5-[2-(4-Fluoro-phenyl)-2-oxo-ethylamino]-2-methyl-phenylamino}-oxazol-5-yl)-benzonitrile], the melting point worked out at 199 °C.

For the compound `CCS(=O)(=O)c1ccc2oc(Nc3ccc(C)c(Nc4ncc(-c5ccncc5)o4)c3)nc2c1` [Compound 007, N1-(5-Ethanesulfonyl-benzooxazol-2-yl)-4-methyl-N3-(5-pyridin-4-yl-oxazol-2-yl)-benzene-1,3-diamine], the melting point came out at 252 °C. As for `Cc1ccc(N2CCN(c3cccc(C(F)(F)F)c3)C2=O)cc1Nc1ncc(-c2ccncc2)o1` [Compound 015, 1-[4-Methyl-3-(5-pyridin-4-yl-oxazol-2-ylamino)-phenyl]-3-(3-trifluoromethyl-phenyl)-imidazolidin-2-one], the figure is 198 to 200 °C; as for `Cc1ccc(NS(=O)(=O)Cc2ccccc2)cc1Nc1ncc(-c2ccncc2)o1` [Compound 001, N-[4-Methyl-3-(5-pyridin-4-yl-oxazol-2-ylamino)-phenyl]-C-phenyl-methane sulfonamide], 258 °C. `Cc1ccc(N2CCN(c3cccc(F)c3)C2=O)cc1Nc1ncc(-c2ccc(C#N)cc2)o1` [Compound 011, 4-(2-{5-[3-(3-Fluoro-phenyl)-2-oxo-imidazolidin-1-yl]-2-methyl-phenylamino}-oxazol-5-yl)-benzonitrile] showed a melting point of 221 °C.

Compound `Cc1ccc(C(=O)CCc2ccccc2)cc1Nc1ncc(-c2ccc(C#N)cc2)o1` [Compound 020, 4-{2-[2-Methyl-5-(3-phenyl-propionyl)-phenylamino]-oxazol-5-yl}-benzonitrile] gave a melting point of 138 °C. As to `Cc1ccc(N2CCN(c3cccc(F)c3)C2=O)cc1Nc1ncc(-c2ccc(C(N)=O)cc2)o1` [Compound 013, 4-(2-{5-[3-(3-Fluoro-phenyl)-2-oxo-imidazolidin-1-yl]-2-methyl-phenylamino}-oxazol-5-yl)-benzamide], the melting point is above 260 °C. As to `Cc1ccc(C(=O)CCc2cccc(F)c2)cc1Nc1ncc(-c2ccc(C#N)cc2)o1` [Compound 021, 4-(2-{5-[3-(3-Fluoro-phenyl)-propionyl]-2-methyl-phenylamino}-oxazol-5-yl)-benzonitrile], the melting point was 157 °C.

Consider `Cc1ccc(Nc2nc3ccccc3o2)cc1Nc1ncc(-c2ccc(C#N)cc2)o1` [Compound 002, 4-{2-[5-(Benzooxazol-2-ylamino)-2-methyl-phenylamino]-oxazol-5-yl}-benzonitrile], for which the melting point turned out to be 236 °C.

Compound `Cc1ccc(Nc2nc3ccc(F)cc3o2)cc1Nc1ncc(-c2ccncc2)o1` [Compound 010, N1-(6-Fluoro-benzooxazol-2-yl)-4-methyl-N3-(5-pyridin-4-yl-oxazol-2-yl)-benzene-1,3-diamine] gave a melting point of 260 °C. `Cc1ccc(C(=O)CCc2ccccc2)cc1Nc1ncc(-c2ccncc2)o1` [Compound 017, 1-[4-Methyl-3-(5-pyridin-4-yl-oxazol-2-ylamino)-phenyl]-3-phenyl-propan-1-one] showed a melting point of 138 °C. `Cc1ccc(NCC(=O)c2ccc(F)cc2)cc1Nc1ncc(-c2ccncc2)o1` [Compound 023, 1-(4-Fluoro-phenyl)-2-[4-methyl-3-(5-pyridin-4-yl-oxazol-2-ylamino)-phenylamino]-ethanone] gave a melting point of 202 °C. On to `Cc1ccc(Nc2nc3ccc(Cl)cc3o2)cc1Nc1ncc(-c2ccncc2)o1` [Compound 006, N1-(6-Chloro-benzooxazol-2-yl)-4-methyl-N3-(5-pyridin-4-yl-oxazol-2-yl)-benzene-1,3-diamine], for which the melting point is above 260 °C.

As usually defined, the melting point is the temperature, or range, at which the solid turns liquid.

For the origin of these results see patent publication US8658659B2, “Substituted oxazole derivatives and their use as tyrosine kinase inhibitors” (AB Science, priority 2005, dated 2014).
